Values quoted from earlier work as cited in patent publication US8372933B2, “Hyperbranched polymers based on cyclodextrins and poly (amidoamines) for the controlled release of insoluble drugs” (L'Urederra Fundacion Para el Desarrollo Tecnologico y Social, priority 2007, dated 2013).

Settings: oral

- bioavailability: 15-30%
Structure (SMILES): Nc1nc2c(ncn2COCCO)c(=O)[nH]1 [Acyclovir]
